Source: patent US20160176859A1, “High-Throughput Assay for Identifying Small Molecules that Modulate AMP-activated Protein Kinase (AMPK)” (North Carolina Central University, priority 2013, published 2016)

Legend:
[1] = biological target: T1, full-length AMPK (rat His-α1, β1, γ1) (Rattus norvegicus, UniProt P54645+P80385); assay: MANT-ADP fluorescence displacement (binding) assay, full-length AMPK; details: for inhibition of the protein-bound signal of MANT-ADP in the triplicate similarity screen: final concentration 45 μM
T1 construct: Tricistronic vectors encoding full-length AMPK (rat His-α1, β1, γ1); made in house; host or cells: Rosetta cells (E. coli), tricistronic vector, gift of Dr. Uwe Schlattner
Protocol: Except where otherwise noted, assays were performed with the following conditions: 0.5 μM full-length AMPK (130 kDa) or 0.5 μM regulatory fragment (66.7 kDa), 0.1 μM MANT-ADP, 10 mM Tris-HCl (pH 8), 0.45% DMSO (vehicle and negative control), and 5 μM ADP (positive control). Automated assays were assembled in two steps. First, a NanoQuot (BioTek) was used to dispense 11 μL of master mix (protein, MANT-ADP, and Tris-HCl) per well in black, low volume 384-well plates (Corning-3676). Next, a Biomek NX workstation (Beckman-Coulter, Brea, Calif.) equipped with pintools (VP Scientific, San Diego Calif.) was used to transfer 50 nL of controls (columns 1, 2, 23, and 24) and small molecules (4.5 μM final). Controls and library molecules were transferred from Axygen 384-well rigid PCR plates (Cat no. 321-67-051) at 221× concentration for single-concentration screening. Plates were shaken for 10 minutes prior to reading.
Fluorescence emission spectra of MANT-ADP were collected using a PerkinElmer EnSpire plate reader with an excitation wavelength of 360 nm. Background fluorescence from protein was subtracted from the raw data prior to plotting MANT-ADP's fluorescence in the presence of protein. Fluorescence detection for assay development and screening was performed on either a BMG Pherastar Plus (360/10 excitation and 460/10 emission filters) or a PerkinElmer EnVision (355/40 excitation and 460/25 emission filters), depending on equipment availability. Relative fluorescence units (RFUs) were recorded at room temperature.
ScreenAble (ScreenAble Solutions, Chapel Hill, N.C.) high-throughput screening software was utilized for merging screening data and chemical structure, for statistical design of experiments, and hit selection. GraphPad Prism was used for non-linear regression analysis of dose response data.
Binding assays. Except where otherwise noted, assay assembly and data analysis were completed according to published methods. Binding assays were manually assembled, with the exception of the similarity screen. Automated assembly of the similarity screen was completed according to published methods. Analogs were cherry-picked from a 10 mM Asinex small molecule library and a 0.5 mM kinase focused library, which has been described previously (4). Molecules were screened at a final concentration of 45 and 2.3 μM, respectively.

[2] = biological target: T2, p-AMPK in the presence of PP2C (Rattus norvegicus, UniProt P54645+P80385); assay: Phosphatase assay: protection of p-AMPK from dephosphorylation by PP2C; format: biochemical; details: p-AMPK/total AMPK ratio normalized to no-PP2C control
T2 construct: Full-length AMPK intended for use in phosphatase and kinase assays was purified, mixed with GST-CaMKKβ; made in house; host or cells: Rosetta cells (E. coli); phosphorylated in vitro with GST-CaMKKβ, which was then removed
Protocol: Phosphatase assays. Assay conditions were adapted from published methods (18). In short, the final assay buffer was compromised of 50 mM Tris (pH 7.5), […], 0.01% Triton X-100, 1 mM DTT, and 0.45% DMSO (vehicle). Because some analogs had poor solubility at high concentrations, all analogs and controls were diluted in assay buffer and centrifuged (1 min, 5000 rpm, 4° C.) to remove insoluble matter. PP2C and p-AMPK were added to the supernatant at final concentrations of 2 and 3 ng/μL, respectively. Phosphatase reactions were allowed to proceed for 30 minutes at 37° C. Reactions were stopped by the addition of loading buffer and 48 mM DTT followed promptly by freezing at −20° C.
Western analyses. Protein samples were boiled for 15 minutes in loading buffer and DTT prior to SDS-PAGE. Blots for protein-based assays were sequentially incubated with the following: 5% BSA in 1× TBS (1 hr, 22° C.), 1:1000 rabbit anti-human p-AMPK-α antibody or p-ACC antibody (2 hr, 22° C.), and 1:10,000 donkey anti-rabbit secondary antibody (1 hr, 22° C.). Blots for phosphatase assays were probed a second time using 1:100 mouse anti-human total AMPK antibody (overnight, 4° C.; from UNC Antibody Core Facility) followed by 1:10,000 donkey anti-mouse secondary antibody (1 hr, 22° C.). […]

[3] = biological target: T3, purified p-AMPK (Rattus norvegicus, UniProt P54645+P80385); assay: Kinase assay with purified p-AMPK and GST-ACC peptide; format: biochemical; details: compared to DMSO control
T3 construct: Full-length AMPK intended for use in phosphatase and kinase assays was purified, mixed with GST-CaMKKβ; made in house; host or cells: Rosetta cells (E. coli); phosphorylated in vitro with GST-CaMKKβ, which was then removed on glutathione resin
Protocol: Kinase assays. Assay conditions were adapted from published methods (17). The final assay buffer was comprised of 40 mM Hepes (pH 7.4) 5 mM MgCl2, 200 μM ATP, 75 mM NaCl, 0.01% Triton X-100, 1 mM DTT, and 0.45% DMSO (vehicle). Because some analogs had poor solubility at high concentrations, all analogs and controls were diluted in assay buffer and centrifuged (1 min, 5000 rpm, 4° C.) to remove insoluble matter. GST-ACC peptide and p-AMPK were thawed, diluted in assay buffer, and then added to the supernatant at final concentrations of 900 and 0.1 ng/μL, respectively. Kinase assays were assembled on ice; reactions were allowed to proceed for 30 minutes at room temperature. Reactions were stopped by the addition of loading buffer and 48 mM DTT followed promptly by freezing at −20° C.
(§1) Western analyses. Protein samples were boiled for 15 minutes in loading buffer and DTT prior to SDS-PAGE. Blots for protein-based assays were sequentially incubated with the following: 5% BSA in 1× TBS (1 hr, 22° C.), 1:1000 rabbit anti-human p-AMPK-α antibody or p-ACC antibody (2 hr, 22° C.), and 1:10,000 donkey anti-rabbit secondary antibody (1 hr, 22° C.). Blots for phosphatase assays were probed a second time using 1:100 mouse anti-human total AMPK antibody (overnight, 4° C.; from UNC Antibody Core Facility) followed by 1:10,000 donkey anti-mouse secondary antibody (1 hr, 22° C.). Blots for clarified cell lysates were sequentially probed for p-AMPK (1:500 dilution, overnight at 4° C. or 4 hours at 22° C.), total ACC (1:1000 dilution, overnight at 4° C. or 4 hours at 22° C.), and tubulin (1:10,000 dilution, 1 hr, 22° C.); a parallel set of blots were probed for p-ACC (1:500 dilution, overnight at 4° C. or 4 hours at 22° C.), total AMPK (1:1000 dilution, overnight at 4° C. or 4 hours at 22° C.), and tubulin (1:10,000 dilution, 1 hr, 22° C.). Because phosphorylated and total protein were imaged on separate membranes, the signals were normalized to the internal tubulin signal prior to calculating the ratio of phosphorylated to total protein. Scanning and imaging were completed according to published methods.

[4] = test system: p-ACC levels in HEK cells; assay: Cell-intact assay, p-ACC levels in HEK cells; format: cell-based, human
Protocol: Cell-intact assays. HEK cells were grown in DMEM with 10% FBS and 1% penicillin/streptomycin at 37° C. A subset of plates was serum-starved for 5 hours on the day of the experiment. After 5 hours of serum-starvation, cells were treated with either controls (0.2% DMSO, A-769662, or Compound C) or small molecules in the absence of serum for an additional hour prior to lysis. Another subset of plates was serum-starved for 6 hours and then treated with either controls or small molecules for 1 hour in the presence of 10% FBS. A time course of both AMPK and ACC phosphorylation in HEK cells during serum starvation has already been published (Pirkmajer S, Chibalin A V. Serum starvation: caveat emptor. American journal of physiology Cell physiology. 2011 August; 301(2):C272-9. PubMed PMID: 2161361).
After incubating in the presence of drugs for one hour, cells were washed three times with ice-cold PBS and lysed according to published methods (Kazgan N, Williams T, Forsberg L J, Brenman J E. Identification of a nuclear export signal in the catalytic subunit of AMP-activated protein kinase. Molecular biology of the cell. 2010 Oct. 1; 21(19):3433-42. PubMed PMID: 20685962. Pubmed Central PMCID: 2947478). Lysates were centrifuged at 16,000 g (10 minutes, 4° C.). Clarified supernatant (30 μL) was then transferred to 10 μL 4X loading buffer and 2 μL 1 M DTT. Samples were immediately frozen at −20° C. The concentration of protein in diluted clarified supernatant was calculated using a DC protein assay kit (BioRad) prior to western analyses.
as §1

T1 sequence (P54645 with tags, fused parts or gaps limits assumed): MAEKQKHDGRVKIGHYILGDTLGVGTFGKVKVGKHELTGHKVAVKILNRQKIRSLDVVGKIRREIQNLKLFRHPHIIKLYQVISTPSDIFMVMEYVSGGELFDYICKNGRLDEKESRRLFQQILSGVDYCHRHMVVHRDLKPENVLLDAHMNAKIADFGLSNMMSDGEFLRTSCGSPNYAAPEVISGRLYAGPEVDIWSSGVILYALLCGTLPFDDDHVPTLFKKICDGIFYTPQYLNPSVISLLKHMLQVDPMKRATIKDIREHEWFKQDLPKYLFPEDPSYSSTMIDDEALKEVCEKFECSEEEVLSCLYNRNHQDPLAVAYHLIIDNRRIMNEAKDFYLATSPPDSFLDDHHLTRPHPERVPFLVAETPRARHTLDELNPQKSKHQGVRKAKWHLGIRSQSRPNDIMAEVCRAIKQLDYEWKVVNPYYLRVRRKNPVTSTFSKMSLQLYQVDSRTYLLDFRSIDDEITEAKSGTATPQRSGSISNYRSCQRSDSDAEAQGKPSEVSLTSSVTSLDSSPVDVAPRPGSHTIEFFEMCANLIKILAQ
T1 sequence (P80386 whole entry partner): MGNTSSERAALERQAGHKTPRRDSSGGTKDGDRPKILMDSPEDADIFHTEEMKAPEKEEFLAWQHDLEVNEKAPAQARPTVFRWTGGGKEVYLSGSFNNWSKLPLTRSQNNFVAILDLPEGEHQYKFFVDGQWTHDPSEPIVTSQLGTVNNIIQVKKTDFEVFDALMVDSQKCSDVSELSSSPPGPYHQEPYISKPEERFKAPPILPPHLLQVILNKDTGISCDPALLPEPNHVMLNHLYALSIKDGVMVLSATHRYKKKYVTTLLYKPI
T1 sequence (P80385 whole entry): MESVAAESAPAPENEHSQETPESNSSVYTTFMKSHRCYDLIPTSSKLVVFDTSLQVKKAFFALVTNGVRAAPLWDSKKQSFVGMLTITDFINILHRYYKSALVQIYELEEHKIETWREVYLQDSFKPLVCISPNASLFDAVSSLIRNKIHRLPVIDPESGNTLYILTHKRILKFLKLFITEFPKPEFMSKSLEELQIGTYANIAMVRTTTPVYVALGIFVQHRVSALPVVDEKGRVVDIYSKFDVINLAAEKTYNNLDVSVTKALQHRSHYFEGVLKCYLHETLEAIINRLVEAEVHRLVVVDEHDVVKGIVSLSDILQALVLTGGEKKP
T2 sequence (P54645 with tags, fused parts or gaps limits assumed): as the sequence (P54645 with tags, fused parts or gaps limits assumed) above
T2 sequence (P80386 whole entry partner): as the sequence (P80386 whole entry partner) above
T2 sequence (P80385 whole entry): as the sequence (P80385 whole entry) above
T3 sequence (P54645 with tags, fused parts or gaps limits assumed): as the sequence (P54645 with tags, fused parts or gaps limits assumed) above
T3 sequence (P80386 whole entry partner): as the sequence (P80386 whole entry partner) above
T3 sequence (P80385 whole entry): as the sequence (P80385 whole entry) above

| inhibition of the protein-bound signal of MANT-ADP in the triplicate similarity screen [1] | protection of p-AMPK from dephosphorylation [2] | IC50 ([1]; full-length AMPK, Example 4, read-out: binding IC50) [µM] | activity of purified p-AMPK (phosphorylation of GST-ACC peptide), dose response [3] | SMILES | p-ACC levels, serum-treated HEK cells ([4]; 10% serum) | p-ACC levels, serum-starved HEK cells ([4]; serum-starved, 1 hour treatment) |
| --- | --- | --- | --- | --- | --- | --- |
| reproducibly inhibited | – | – | – | COC(=O)CN1C(=O)/C(=C/c2ccc(OC)cc2)SC1=S [BAS 00502779] | – | – |
| reproducibly inhibited | failed to protect | < 5 | – | CCCOC(=O)c1cc(-c2ccc(/C=C3\SC(=S)NC3=O)o2)ccc1Cl [BAS 03338548, Propyl 2-chloro-5-(5-{[(5Z)-4-oxo-2-sulfanylidene-1,3-thiazolidin-5-ylidene]methyl}furan-2-yl)benzoate] | – | – |
| – | – | – | inhibits substrate phosphorylation | c1cc(-c2cnn3cc(-c4ccc(OCCN5CCCCC5)cc4)cnc23)ccn1 [Compound C, reference compound] | modest decreases | best inhibition |
